Calls of active or inactive are those of the source. The calls are words filed in the database; no cut-off is given here.
How the values were obtained:
[1] = target: T1, Aurora kinase A (Homo sapiens) (UniProt O14965); assay: Binding affinity to wild-type human partial length AURKA (E122 to K401 residues) expressed in mammalian expression system assessed as fraction of unbound kinase to substrate at 10 uM after 1 hr by KinomeScan assay
T1 sequence (whole entry): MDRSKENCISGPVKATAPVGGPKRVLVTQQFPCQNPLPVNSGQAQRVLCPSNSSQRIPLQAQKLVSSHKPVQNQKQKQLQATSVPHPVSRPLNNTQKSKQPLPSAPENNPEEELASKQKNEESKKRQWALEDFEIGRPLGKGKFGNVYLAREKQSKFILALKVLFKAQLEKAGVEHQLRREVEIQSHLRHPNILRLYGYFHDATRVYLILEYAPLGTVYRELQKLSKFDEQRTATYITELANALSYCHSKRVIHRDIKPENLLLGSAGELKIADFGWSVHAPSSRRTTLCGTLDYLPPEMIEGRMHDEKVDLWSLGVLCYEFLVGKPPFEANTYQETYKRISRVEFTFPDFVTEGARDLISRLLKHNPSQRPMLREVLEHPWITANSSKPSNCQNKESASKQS

[2] = target: Cyclin-dependent kinase 2 (Homo sapiens) (UniProt P24941); assay: Binding affinity to wild-type human full length CDK2 (M1 to L298 residues) expressed in bacterial expression system assessed as fraction of unbound kinase to substrate at 10 uM after 1 hr by KinomeScan assay
[3] = target: Epidermal growth factor receptor (Homo sapiens) (UniProt P00533); assay: Binding affinity to partial length wild type human EGFR (R669 to V1011 residues) expressed in bacterial expression system assessed as fraction of unbound kinase to substrate at 1 uM after 1 hr by KinomeScan assay
Epidermal growth factor receptor (Homo sapiens), sequence (P00533 whole entry, the tested form may be a part): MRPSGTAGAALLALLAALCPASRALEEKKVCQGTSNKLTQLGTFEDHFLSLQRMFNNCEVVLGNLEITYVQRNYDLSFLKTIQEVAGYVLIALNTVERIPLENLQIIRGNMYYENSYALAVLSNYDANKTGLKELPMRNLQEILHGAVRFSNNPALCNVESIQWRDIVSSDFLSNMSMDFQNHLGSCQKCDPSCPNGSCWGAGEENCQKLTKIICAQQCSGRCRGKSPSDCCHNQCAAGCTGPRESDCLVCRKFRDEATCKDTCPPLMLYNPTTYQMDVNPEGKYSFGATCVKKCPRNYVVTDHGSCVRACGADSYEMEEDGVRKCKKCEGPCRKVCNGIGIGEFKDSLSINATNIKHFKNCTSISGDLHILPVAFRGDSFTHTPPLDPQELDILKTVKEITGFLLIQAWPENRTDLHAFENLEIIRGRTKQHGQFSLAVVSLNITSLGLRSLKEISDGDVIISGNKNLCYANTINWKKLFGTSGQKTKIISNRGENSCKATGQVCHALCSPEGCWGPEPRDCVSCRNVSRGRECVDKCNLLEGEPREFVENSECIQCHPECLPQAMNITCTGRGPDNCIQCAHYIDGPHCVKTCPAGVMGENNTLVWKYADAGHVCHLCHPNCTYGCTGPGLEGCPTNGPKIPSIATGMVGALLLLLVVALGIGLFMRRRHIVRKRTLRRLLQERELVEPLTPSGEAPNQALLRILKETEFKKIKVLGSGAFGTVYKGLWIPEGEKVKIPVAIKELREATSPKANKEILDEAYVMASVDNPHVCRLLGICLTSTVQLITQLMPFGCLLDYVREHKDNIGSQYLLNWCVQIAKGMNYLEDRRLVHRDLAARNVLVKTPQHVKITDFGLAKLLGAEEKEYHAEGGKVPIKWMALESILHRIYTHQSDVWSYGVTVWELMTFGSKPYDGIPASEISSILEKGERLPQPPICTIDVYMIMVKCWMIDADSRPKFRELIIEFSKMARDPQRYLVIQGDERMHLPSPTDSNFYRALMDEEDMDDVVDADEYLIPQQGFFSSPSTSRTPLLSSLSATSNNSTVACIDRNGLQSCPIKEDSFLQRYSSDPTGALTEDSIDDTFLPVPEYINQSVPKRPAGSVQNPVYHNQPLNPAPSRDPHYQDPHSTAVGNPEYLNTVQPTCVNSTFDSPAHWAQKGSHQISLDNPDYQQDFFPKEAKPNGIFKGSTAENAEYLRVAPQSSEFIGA

[4] = target: Epidermal growth factor receptor (Homo sapiens) (UniProt P00533); assay: Binding affinity to partial length wild type human EGFR (R669 to V1011 residues) expressed in bacterial expression system assessed as fraction of unbound kinase to substrate at 10 uM after 1 hr by KinomeScan assay
[5] = target: T2, Tyrosine-protein kinase receptor TYRO3 (Homo sapiens) (UniProt Q06418); assay: Binding affinity to wild-type human partial length TYRO3 (S497 to T814 residues) expressed in bacterial expression system assessed as fraction of unbound kinase to substrate at 1 uM after 1 hr by KinomeScan assay
T2 sequence (whole entry): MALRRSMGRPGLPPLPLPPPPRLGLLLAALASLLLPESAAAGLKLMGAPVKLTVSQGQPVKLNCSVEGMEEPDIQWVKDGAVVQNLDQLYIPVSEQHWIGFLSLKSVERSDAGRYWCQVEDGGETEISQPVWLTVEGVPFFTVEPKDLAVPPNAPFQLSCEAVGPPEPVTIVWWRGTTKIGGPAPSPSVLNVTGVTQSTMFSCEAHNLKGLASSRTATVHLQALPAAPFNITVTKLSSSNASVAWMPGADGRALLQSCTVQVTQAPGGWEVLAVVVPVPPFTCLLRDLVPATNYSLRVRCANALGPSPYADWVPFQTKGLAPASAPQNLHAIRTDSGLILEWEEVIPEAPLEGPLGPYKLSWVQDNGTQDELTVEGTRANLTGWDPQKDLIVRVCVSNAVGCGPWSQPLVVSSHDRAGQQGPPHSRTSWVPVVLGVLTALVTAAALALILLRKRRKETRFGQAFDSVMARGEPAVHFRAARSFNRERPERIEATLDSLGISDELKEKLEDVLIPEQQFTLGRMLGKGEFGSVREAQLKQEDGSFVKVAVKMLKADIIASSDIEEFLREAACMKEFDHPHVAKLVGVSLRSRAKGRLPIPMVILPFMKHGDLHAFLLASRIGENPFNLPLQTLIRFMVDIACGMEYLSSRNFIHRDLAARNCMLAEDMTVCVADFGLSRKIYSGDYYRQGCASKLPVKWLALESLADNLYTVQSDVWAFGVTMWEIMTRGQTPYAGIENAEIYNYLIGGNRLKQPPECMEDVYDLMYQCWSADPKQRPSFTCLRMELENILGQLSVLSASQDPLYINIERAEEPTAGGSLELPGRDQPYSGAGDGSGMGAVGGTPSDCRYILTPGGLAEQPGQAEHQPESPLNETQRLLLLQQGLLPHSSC

[6] = target: Tyrosine-protein kinase receptor UFO (Homo sapiens) (UniProt P30530); assay: Binding affinity to human AXL (R497 to Y821 residues) expressed in bacterial expression system assessed as fraction of unbound kinase to substrate at 1 uM after 1 hr by KinomeScan assay
Tyrosine-protein kinase receptor UFO (Homo sapiens), sequence (P30530 whole entry, the tested form may be a part): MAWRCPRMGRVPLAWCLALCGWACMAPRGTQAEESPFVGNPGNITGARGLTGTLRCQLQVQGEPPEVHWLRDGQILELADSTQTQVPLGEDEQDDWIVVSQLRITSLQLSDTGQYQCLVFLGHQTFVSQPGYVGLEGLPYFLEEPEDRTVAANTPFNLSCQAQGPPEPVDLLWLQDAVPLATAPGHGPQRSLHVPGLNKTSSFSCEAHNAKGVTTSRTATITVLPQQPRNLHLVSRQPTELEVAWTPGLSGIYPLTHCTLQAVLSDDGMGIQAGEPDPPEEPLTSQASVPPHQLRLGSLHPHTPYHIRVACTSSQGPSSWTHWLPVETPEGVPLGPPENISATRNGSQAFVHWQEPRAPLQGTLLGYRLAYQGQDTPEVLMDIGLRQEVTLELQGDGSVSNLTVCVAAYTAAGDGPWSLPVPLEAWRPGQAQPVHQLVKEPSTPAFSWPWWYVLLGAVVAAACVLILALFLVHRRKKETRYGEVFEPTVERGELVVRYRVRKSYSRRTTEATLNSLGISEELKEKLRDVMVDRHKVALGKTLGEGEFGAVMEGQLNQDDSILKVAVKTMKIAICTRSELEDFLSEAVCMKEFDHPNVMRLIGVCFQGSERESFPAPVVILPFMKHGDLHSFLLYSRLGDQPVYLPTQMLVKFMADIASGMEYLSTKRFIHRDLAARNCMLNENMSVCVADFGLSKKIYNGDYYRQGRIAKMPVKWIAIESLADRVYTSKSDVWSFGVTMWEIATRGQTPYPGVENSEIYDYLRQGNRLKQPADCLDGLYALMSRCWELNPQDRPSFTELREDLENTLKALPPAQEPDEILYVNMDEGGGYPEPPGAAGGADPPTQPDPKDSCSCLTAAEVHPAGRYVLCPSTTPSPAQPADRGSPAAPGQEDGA

[7] = target: T3, Tyrosine-protein kinase Mer (Homo sapiens) (UniProt Q12866); assay: Binding affinity to wild-type partial length human MER (R557 to L884 residues) expressed in bacterial expression system assessed as fraction of unbound kinase to substrate at 0.1 uM after 1 hr by KinomeScan assay
T3 sequence (whole entry): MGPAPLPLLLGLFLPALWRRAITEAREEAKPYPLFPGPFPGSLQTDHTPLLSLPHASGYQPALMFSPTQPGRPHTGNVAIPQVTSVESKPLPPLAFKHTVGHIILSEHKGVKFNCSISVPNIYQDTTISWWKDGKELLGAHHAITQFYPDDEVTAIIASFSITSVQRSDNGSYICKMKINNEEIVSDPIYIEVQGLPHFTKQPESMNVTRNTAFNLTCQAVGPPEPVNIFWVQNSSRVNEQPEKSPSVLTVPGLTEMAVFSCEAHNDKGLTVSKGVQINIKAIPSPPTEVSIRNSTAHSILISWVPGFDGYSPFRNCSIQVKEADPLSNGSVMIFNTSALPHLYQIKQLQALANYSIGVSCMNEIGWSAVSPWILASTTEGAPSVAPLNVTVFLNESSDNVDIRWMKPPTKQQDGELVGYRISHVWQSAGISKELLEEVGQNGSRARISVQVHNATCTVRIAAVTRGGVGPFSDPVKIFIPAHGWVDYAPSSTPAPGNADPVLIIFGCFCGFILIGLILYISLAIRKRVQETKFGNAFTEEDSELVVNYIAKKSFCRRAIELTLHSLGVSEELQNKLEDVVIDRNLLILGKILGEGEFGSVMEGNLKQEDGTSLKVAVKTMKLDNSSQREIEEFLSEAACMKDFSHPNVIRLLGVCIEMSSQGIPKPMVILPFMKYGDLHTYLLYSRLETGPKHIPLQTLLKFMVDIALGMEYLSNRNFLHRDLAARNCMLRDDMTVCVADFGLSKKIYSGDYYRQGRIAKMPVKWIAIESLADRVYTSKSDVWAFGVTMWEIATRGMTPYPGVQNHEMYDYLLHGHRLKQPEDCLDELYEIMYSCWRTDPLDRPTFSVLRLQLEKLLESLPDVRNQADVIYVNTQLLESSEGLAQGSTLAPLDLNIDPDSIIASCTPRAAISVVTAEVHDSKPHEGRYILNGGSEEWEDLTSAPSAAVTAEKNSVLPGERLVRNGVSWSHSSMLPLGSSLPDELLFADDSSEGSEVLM

Homo sapiens = organism: Homo sapiens; assay: Antiproliferative activity against human MGHU3 cells after 72 hrs by CellTiter-Glo assay; format: functional, cell-based
A549 = assay: Antiproliferative activity against human A549 cells after 72 hrs by CellTiter-Glo assay; format: functional, cell-based

Row | Activity [1] [%] | Activity [2] [%] | Activity [3] [%] | Activity [4] [%] | Activity [5] [%] | Activity [6] [%] | Activity [7] [%] | SMILES | Activity (Homo sapiens) | Activity (A549)
1 | 45 | 32 | 0 | 1 | 11 | 52 | 4 | O=C(Nc1ccc(Oc2c(Br)cnc3[nH]cnc23)c(F)c1)c1cccn(-c2ccc(F)cc2)c1=O |  | 
2 | 12 | 99.7 | 0 | 8 | 39 | 90 | 92.3 | CC(C)c1nc2c(Oc3ccc(NC(=O)c4cccn(-c5ccc(F)cc5)c4=O)cc3F)ccnc2[nH]1 | inactive | inactive
3 | 41 | 3 | 0 | 0 | 0 | 67 | 17 | Cc1cnc2[nH]cnc2c1Oc1ccc(NC(=O)c2cccn(-c3ccc(F)cc3)c2=O)cc1F | inactive | inactive
4 | 13 | 48 | 0 | 0 | 81 | 90.7 | 87 | O=C(Nc1ccc(Oc2ccnc3[nH]cnc23)c(F)c1)c1cccn(-c2ccc(F)cc2)c1=O | inactive | inactive

Reference: ChEMBL document CHEMBL4261615, “Design, synthesis, biological evaluation and cellular imaging of imidazo[4,5-b]pyridine derivatives as potent and selective TAM inhibitors” (Bioorg Med Chem, 2018)
